Test results taken from paper PMC5513037, “Examining the influence of specificity ligands and ATP-competitive ligands on the overall effectiveness of bivalent kinase inhibitors” (Proteome Science, 2017).

Experiments:
Test in all cases: KAM-matrix competition in K562 lysate;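 on 0.001 uM KAM: median log10 fold change of treatment over DMSO control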;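 on 0.01 uM KAM: median log10 fold change of treatment over DMSO control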;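 on 0.1 uM KAM: median log10 fold change of treatment over DMSO control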;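 on 1 uM KAM: median log10 fold change of treatment over DMSO control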;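 on 10 uM KAM: median log10 fold change of treatment over DMSO control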
Format in all cases: binding
[1] = biological target: T1, ACVR1B (Homo sapiens, UniProt P36896)
T1 construct: endogenous in cells; host or cells: K562
T1 sequence (P36896 24-505): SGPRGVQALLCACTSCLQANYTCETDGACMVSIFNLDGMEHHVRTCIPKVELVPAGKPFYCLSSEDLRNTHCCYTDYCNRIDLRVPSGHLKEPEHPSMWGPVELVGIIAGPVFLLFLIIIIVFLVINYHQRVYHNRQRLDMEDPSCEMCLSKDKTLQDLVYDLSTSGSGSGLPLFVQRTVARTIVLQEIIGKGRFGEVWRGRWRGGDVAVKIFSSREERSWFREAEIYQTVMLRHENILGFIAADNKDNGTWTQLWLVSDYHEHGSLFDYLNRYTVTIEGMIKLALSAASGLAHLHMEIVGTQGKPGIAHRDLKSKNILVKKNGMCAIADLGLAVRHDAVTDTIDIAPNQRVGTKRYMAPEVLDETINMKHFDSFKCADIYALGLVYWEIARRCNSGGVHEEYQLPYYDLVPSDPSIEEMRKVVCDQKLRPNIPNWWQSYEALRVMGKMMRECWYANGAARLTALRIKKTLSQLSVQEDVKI
Experimental: (§1) Supplement 12953_2017_125_MOESM1_ESM.zip/MS_Supp Info.xlsx, sheet "KAM" | column: 10 uM KAM; 1 uM KAM; 0.1 uM KAM; 0.01 uM KAM; 0.001 uM KAM; RB50

[2] = biological target: T2, CAMK2D (Homo sapiens, UniProt Q13557);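 on 0.001 uM KAM: median log10 fold change of treatment over DMSO control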;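 on 0.01 uM KAM: median log10 fold change of treatment over DMSO control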;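 on 0.1 uM KAM: median log10 fold change of treatment over DMSO control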;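 on 1 uM KAM: median log10 fold change of treatment over DMSO control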;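 on 10 uM KAM: median log10 fold change of treatment over DMSO control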
T2 construct: endogenous in cells; host or cells: K562
Experimental: as §1

[3] = biological target: T3, CDK14 (Homo sapiens, UniProt O94921)
T3 construct: endogenous in cells; host or cells: K562
Experimental: as §1

[4] = biological target: T4, JAK1 (Homo sapiens, UniProt P23458)
T4 construct: endogenous in cells; host or cells: K562
Experimental: as §1

[5] = biological target: T5, MAP2K1 (Homo sapiens, UniProt Q02750)
T5 construct: endogenous in cells; host or cells: K562
Experimental: as §1

[6] = biological target: T6, MTOR (Homo sapiens, UniProt P42345);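 on 0.001 uM KAM: median log10 fold change of treatment over DMSO control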;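 on 0.01 uM KAM: median log10 fold change of treatment over DMSO control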;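 on 0.1 uM KAM: median log10 fold change of treatment over DMSO control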;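 on 1 uM KAM: median log10 fold change of treatment over DMSO control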;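 on 10 uM KAM: median log10 fold change of treatment over DMSO control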
T6 construct: endogenous in cells; host or cells: K562
Experimental: as §1

[7] = biological target: T7, MYO3A (Homo sapiens, UniProt Q8NEV4);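 on 0.001 uM KAM: median log10 fold change of treatment over DMSO control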;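 on 0.01 uM KAM: median log10 fold change of treatment over DMSO control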;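 on 0.1 uM KAM: median log10 fold change of treatment over DMSO control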;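 on 1 uM KAM: median log10 fold change of treatment over DMSO control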;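 on 10 uM KAM: median log10 fold change of treatment over DMSO control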
T7 construct: endogenous in cells; host or cells: K562
Experimental: as §1

[8] = biological target: T8, NME7 (Homo sapiens, UniProt Q9Y5B8);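 on 0.001 uM KAM: median log10 fold change of treatment over DMSO control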;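 on 0.01 uM KAM: median log10 fold change of treatment over DMSO control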;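 on 0.1 uM KAM: median log10 fold change of treatment over DMSO control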;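 on 1 uM KAM: median log10 fold change of treatment over DMSO control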;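 on 10 uM KAM: median log10 fold change of treatment over DMSO control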
T8 construct: endogenous in cells; host or cells: K562
T8 sequence (Q9Y5B8 1-376): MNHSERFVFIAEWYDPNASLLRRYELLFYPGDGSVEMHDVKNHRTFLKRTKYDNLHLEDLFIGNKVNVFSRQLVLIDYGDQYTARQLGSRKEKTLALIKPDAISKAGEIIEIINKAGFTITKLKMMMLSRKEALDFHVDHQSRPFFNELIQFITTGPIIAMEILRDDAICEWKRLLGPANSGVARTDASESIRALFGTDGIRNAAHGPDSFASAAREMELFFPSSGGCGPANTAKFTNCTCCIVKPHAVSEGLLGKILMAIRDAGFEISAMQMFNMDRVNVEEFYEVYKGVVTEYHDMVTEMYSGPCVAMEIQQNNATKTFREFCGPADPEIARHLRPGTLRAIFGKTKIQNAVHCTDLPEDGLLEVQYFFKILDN
Experimental: as §1

[9] = biological target: T9, PBK (Homo sapiens, UniProt Q96KB5);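 on 0.001 uM KAM: median log10 fold change of treatment over DMSO control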;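 on 0.01 uM KAM: median log10 fold change of treatment over DMSO control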;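 on 0.1 uM KAM: median log10 fold change of treatment over DMSO control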;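 on 1 uM KAM: median log10 fold change of treatment over DMSO control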;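 on 10 uM KAM: median log10 fold change of treatment over DMSO control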
T9 construct: endogenous in cells; host or cells: K562
T9 sequence (Q96KB5 1-322): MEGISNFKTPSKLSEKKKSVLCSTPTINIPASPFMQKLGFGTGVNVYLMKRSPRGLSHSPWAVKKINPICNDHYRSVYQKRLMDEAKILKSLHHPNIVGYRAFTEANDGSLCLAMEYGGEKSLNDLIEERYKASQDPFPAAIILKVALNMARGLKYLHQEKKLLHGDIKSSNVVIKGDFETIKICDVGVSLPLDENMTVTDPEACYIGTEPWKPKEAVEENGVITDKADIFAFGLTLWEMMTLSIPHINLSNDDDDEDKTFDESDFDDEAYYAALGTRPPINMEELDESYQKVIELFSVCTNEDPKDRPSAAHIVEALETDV
Experimental: as §1

[10] = biological target: T10, SLK (Homo sapiens, UniProt Q9H2G2)
T10 construct: endogenous in cells; host or cells: K562
Experimental: as §1

[11] = biological target: T11, STK38 (Homo sapiens, UniProt Q15208)
T11 construct: endogenous in cells; host or cells: K562
Experimental: as §1

[12] = read-out: RB50 (the source's name)
[13] = KAM 0.001-10 uM, read-out: RB50 (the source's name)

T4 sequence (P23458 whole entry): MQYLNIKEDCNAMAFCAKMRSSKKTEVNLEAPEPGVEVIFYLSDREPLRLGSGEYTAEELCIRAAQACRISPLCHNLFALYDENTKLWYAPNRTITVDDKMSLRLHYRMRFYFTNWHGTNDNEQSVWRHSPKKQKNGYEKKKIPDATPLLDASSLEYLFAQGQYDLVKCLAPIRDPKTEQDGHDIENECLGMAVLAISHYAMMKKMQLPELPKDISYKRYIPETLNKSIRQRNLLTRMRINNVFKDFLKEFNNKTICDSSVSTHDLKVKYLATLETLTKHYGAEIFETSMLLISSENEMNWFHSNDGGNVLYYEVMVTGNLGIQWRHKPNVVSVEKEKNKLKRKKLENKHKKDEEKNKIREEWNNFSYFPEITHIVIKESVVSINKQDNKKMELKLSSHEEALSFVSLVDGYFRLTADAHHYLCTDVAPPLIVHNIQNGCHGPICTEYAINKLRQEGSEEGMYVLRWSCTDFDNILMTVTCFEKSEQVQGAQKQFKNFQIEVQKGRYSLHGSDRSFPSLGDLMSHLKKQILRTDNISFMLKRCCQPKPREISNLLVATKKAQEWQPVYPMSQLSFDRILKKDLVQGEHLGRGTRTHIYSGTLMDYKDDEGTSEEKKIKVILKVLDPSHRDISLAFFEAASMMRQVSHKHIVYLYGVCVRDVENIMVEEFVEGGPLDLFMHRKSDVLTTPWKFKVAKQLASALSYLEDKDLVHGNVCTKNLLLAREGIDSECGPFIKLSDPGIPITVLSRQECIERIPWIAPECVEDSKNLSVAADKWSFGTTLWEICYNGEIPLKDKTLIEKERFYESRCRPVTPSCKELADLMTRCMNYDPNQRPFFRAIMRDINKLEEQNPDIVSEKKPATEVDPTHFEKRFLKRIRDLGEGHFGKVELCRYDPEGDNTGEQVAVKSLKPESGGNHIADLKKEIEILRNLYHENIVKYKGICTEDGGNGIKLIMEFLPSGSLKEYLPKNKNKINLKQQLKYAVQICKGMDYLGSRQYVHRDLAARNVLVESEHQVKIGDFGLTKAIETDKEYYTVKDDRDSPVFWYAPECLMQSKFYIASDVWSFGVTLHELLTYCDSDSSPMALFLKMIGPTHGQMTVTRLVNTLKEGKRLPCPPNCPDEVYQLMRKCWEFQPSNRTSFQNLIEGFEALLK
T2 sequence (Q13557 whole entry): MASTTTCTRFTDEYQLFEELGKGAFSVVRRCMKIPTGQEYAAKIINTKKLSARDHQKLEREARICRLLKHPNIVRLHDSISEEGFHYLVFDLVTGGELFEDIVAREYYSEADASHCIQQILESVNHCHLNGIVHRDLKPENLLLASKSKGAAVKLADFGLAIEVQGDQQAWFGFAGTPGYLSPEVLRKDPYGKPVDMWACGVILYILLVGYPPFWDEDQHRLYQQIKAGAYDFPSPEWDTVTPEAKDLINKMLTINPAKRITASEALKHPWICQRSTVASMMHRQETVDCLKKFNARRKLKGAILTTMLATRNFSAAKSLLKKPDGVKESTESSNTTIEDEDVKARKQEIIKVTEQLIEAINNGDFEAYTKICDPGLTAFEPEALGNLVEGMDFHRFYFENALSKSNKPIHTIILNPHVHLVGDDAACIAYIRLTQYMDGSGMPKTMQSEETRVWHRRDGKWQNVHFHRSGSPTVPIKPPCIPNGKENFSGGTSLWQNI
T10 sequence (Q9H2G2 whole entry): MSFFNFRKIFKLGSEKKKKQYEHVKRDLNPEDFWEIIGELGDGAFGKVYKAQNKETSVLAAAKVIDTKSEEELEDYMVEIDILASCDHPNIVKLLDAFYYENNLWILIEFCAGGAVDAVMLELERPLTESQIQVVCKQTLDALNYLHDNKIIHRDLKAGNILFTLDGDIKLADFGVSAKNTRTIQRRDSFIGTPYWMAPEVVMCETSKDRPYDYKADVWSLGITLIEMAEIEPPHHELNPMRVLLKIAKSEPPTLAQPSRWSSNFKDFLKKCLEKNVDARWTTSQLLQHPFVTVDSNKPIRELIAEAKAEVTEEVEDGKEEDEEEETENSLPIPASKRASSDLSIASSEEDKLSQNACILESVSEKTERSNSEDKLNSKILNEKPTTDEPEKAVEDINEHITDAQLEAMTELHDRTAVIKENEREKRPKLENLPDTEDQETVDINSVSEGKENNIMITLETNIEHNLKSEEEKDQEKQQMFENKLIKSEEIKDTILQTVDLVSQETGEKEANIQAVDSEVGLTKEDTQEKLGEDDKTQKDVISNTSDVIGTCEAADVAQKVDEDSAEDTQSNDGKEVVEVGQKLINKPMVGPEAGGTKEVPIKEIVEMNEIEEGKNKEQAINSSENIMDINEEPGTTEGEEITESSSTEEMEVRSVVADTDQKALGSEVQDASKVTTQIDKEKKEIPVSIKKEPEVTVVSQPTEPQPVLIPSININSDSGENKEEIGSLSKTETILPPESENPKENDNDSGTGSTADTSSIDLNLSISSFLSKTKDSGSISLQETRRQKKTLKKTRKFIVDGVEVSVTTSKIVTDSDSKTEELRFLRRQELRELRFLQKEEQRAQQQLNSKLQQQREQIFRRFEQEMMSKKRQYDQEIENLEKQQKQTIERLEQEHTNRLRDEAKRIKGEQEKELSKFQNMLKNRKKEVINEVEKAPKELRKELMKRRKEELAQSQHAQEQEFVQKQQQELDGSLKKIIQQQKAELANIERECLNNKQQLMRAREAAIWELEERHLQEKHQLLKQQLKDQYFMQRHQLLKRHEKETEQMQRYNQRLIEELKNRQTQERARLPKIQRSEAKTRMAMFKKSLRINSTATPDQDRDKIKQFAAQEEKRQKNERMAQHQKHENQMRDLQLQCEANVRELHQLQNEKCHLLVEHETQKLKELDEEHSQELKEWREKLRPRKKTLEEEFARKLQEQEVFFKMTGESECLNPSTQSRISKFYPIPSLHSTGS
T5 sequence (Q02750 whole entry): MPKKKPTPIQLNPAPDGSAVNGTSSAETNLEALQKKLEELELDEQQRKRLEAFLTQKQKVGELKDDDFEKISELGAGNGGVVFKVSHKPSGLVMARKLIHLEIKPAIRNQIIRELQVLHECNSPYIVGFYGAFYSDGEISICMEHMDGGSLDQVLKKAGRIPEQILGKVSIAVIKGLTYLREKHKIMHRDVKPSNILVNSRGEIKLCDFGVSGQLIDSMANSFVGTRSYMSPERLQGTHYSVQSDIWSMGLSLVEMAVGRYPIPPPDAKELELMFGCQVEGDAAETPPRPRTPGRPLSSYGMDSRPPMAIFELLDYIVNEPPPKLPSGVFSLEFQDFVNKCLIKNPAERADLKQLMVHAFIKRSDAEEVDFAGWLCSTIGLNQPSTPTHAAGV
T7 sequence (Q8NEV4 whole entry): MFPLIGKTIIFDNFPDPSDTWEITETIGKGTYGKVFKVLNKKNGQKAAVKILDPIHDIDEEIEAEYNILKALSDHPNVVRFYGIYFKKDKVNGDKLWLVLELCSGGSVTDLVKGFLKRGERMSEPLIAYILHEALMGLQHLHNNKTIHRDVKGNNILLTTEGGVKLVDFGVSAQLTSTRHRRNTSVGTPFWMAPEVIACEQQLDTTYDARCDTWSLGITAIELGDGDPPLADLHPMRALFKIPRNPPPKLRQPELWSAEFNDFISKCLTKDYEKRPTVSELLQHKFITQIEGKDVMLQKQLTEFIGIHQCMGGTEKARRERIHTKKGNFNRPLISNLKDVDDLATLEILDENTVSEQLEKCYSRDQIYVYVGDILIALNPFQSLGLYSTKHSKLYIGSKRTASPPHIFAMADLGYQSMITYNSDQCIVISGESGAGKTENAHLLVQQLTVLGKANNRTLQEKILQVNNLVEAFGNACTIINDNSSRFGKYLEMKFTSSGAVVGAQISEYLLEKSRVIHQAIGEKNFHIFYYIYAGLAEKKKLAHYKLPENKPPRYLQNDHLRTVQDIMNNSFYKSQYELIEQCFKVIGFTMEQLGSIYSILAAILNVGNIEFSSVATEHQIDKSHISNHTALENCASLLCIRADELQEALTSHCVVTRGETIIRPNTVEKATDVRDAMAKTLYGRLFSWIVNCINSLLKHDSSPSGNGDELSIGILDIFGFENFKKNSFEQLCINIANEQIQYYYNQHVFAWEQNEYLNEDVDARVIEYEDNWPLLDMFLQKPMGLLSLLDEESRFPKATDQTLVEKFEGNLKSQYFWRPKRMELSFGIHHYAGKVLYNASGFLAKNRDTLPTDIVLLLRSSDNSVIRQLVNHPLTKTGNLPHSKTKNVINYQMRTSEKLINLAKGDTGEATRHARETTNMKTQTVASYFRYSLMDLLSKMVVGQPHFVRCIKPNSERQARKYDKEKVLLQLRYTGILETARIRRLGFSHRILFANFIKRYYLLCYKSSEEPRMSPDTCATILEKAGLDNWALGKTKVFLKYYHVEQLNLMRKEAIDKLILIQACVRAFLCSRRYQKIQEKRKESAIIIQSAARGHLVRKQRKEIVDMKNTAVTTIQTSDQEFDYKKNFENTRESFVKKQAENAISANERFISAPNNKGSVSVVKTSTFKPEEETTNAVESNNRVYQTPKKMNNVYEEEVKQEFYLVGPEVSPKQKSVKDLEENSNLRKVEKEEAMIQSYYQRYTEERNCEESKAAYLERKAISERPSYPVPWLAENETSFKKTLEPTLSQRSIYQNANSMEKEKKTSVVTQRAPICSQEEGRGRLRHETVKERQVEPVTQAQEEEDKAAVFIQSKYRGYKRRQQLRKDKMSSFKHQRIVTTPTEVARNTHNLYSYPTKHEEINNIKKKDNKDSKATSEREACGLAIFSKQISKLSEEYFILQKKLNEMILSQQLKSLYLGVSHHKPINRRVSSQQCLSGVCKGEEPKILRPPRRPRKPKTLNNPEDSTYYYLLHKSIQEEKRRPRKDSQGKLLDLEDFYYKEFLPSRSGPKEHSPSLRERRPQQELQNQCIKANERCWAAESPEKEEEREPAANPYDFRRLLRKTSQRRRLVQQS

SMILES: N#CCc1ccc(Nc2nc(NCCCN)cc(Nc3cc(C4CC4)[nH]n3)n2)cc1 [KAM]
- median Log10 fold change ([1]; 0.001 uM KAM): -0.01715
- median Log10 fold change ([1]; 0.01 uM KAM): -0.04575
- median Log10 fold change ([1]; 0.1 uM KAM): -0.2439
- median Log10 fold change ([1]; 1 uM KAM): -0.5931
- median Log10 fold change ([1]; 10 uM KAM): -0.7717
- IC50 [1, 12]: 169 nM
- IC50 [2, 13]: > 10000 nM
- 0.001 uM KAM ([2]; relative to 0 uM KAM = 0): -0.03504
- 0.01 uM KAM ([2]; relative to 0 uM KAM = 0): 0.05262
- 0.1 uM KAM ([2]; relative to 0 uM KAM = 0): 0.01424
- 1 uM KAM ([2]; relative to 0 uM KAM = 0): -0.07545
- 10 uM KAM ([2]; relative to 0 uM KAM = 0): -0.201
- median Log10 fold change ([3]; 0.001 uM KAM): 0.09538
- median Log10 fold change ([3]; 0.01 uM KAM): 0.03255
- median Log10 fold change ([3]; 0.1 uM KAM): -0.148
- median Log10 fold change ([3]; 1 uM KAM): -0.2642
- median Log10 fold change ([3]; 10 uM KAM): -0.4049
- IC50 [3, 12]: 1660 nM
- median Log10 fold change ([4]; 0.001 uM KAM): -0.0004094
- median Log10 fold change ([4]; 0.01 uM KAM): 0.001552
- median Log10 fold change ([4]; 0.1 uM KAM): -0.1118
- median Log10 fold change ([4]; 1 uM KAM): -0.4812
- median Log10 fold change ([4]; 10 uM KAM): -0.5497
- IC50 [4, 12]: 518 nM
- median Log10 fold change ([5]; 0.001 uM KAM): -0.01014
- median Log10 fold change ([5]; 0.01 uM KAM): -0.05282
- median Log10 fold change ([5]; 0.1 uM KAM): -0.2542
- median Log10 fold change ([5]; 1 uM KAM): -0.5685
- median Log10 fold change ([5]; 10 uM KAM): -0.7087
- IC50 [5, 12]: 164 nM
- IC50 [6, 13]: > 10000 nM
- 0.001 uM KAM ([6]; relative to 0 uM KAM = 0): -0.05296
- 0.01 uM KAM ([6]; relative to 0 uM KAM = 0): -0.02855
- 0.1 uM KAM ([6]; relative to 0 uM KAM = 0): -0.0574
- 1 uM KAM ([6]; relative to 0 uM KAM = 0): -0.03577
- 10 uM KAM ([6]; relative to 0 uM KAM = 0): -0.01614
- IC50 [7, 13]: > 10000 nM
- 0.001 uM KAM ([7]; relative to 0 uM KAM = 0): -0.00983
- 0.01 uM KAM ([7]; relative to 0 uM KAM = 0): 0.0682
- 0.1 uM KAM ([7]; relative to 0 uM KAM = 0): 0.01204
- 1 uM KAM ([7]; relative to 0 uM KAM = 0): 0.07454
- 10 uM KAM ([7]; relative to 0 uM KAM = 0): -0.0706
- IC50 [8, 13]: > 10000 nM
- 0.001 uM KAM ([8]; relative to 0 uM KAM = 0): -0.02057
- 0.01 uM KAM ([8]; relative to 0 uM KAM = 0): -0.007814
- 0.1 uM KAM ([8]; relative to 0 uM KAM = 0): 0.03797
- 1 uM KAM ([8]; relative to 0 uM KAM = 0): 0.05362
- 10 uM KAM ([8]; relative to 0 uM KAM = 0): 0.03977
- IC50 [9, 13]: > 10000 nM
- 0.001 uM KAM ([9]; relative to 0 uM KAM = 0): 0.04398
- 0.01 uM KAM ([9]; relative to 0 uM KAM = 0): 0.009269
- 0.1 uM KAM ([9]; relative to 0 uM KAM = 0): 0.0383
- 1 uM KAM ([9]; relative to 0 uM KAM = 0): 0.01738
- 10 uM KAM ([9]; relative to 0 uM KAM = 0): 0.0482
- median Log10 fold change ([10]; 0.001 uM KAM): 0.008335
- median Log10 fold change ([10]; 0.01 uM KAM): -0.005793
- median Log10 fold change ([10]; 0.1 uM KAM): -0.3118
- median Log10 fold change ([10]; 1 uM KAM): -0.5551
- median Log10 fold change ([10]; 10 uM KAM): -0.6917
- IC50 [10, 12]: 139 nM
- median Log10 fold change ([11]; 0.001 uM KAM): -0.121
- median Log10 fold change ([11]; 0.01 uM KAM): -0.04373
- median Log10 fold change ([11]; 0.1 uM KAM): -0.1647
- median Log10 fold change ([11]; 1 uM KAM): -0.3238
- median Log10 fold change ([11]; 10 uM KAM): -0.6242
- IC50 [11, 12]: 752 nM
